Source: ChEMBL document CHEMBL1201862, “PubChem BioAssay data set” (2004)
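Interpolation was linear, between the two tested concentrations surrounding the appropriate level; five concentrations were tested over 48 hours in 96-well plates. GI50 marks 50% less growth.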 The source made the active and inactive calls. Rule as the data show it: active = GI50 up to about 1.1 µM and inactive = higher.

Tests used:
Test in all cases: NCI anticancer screen, dose series, 48 h
HOP-62 = system: HOP-62
U-251 = system: U-251
UO-31 = system: UO-31
A498 = system: A498
K562 = system: K562
SK-MEL-2 = system: SK-MEL-2
SNB-75 = system: SNB-75
NCI-H460 = system: NCI-H460
IGROV-1 = system: IGROV-1
CAKI-1 = system: CAKI-1
RXF 393 = system: RXF 393
SF-539 = system: SF-539
SN12C = system: SN12C
HCT-15 = system: HCT-15
Malme-3M = system: Malme-3M
SF-268 = system: SF-268
HL-60 = system: HL-60
NCI/ADR-RES = system: NCI/ADR-RES
PC-3 = system: PC-3
MCF7 = system: MCF7

SMILES | GI50 (HOP-62) | GI50 (U-251) | GI50 (UO-31) | GI50 (A498) | GI50 (K562) | GI50 (SK-MEL-2) | GI50 (SNB-75) | GI50 (NCI-H460) | GI50 (IGROV-1) | GI50 (CAKI-1) | GI50 (RXF 393) | GI50 (SF-539) | GI50 (SN12C) | GI50 (HCT-15) [µM] | GI50 (Malme-3M) | GI50 (SF-268) | GI50 (HL-60) | GI50 (NCI/ADR-RES) | GI50 (PC-3) | GI50 (MCF7)
COc1ccc(C(=O)C(c2ccc(OC)cc2)C2(O)C(=O)Nc3ccc([N+](=O)[O-])cc32)cc1 (stereo unspecified) | > 100 µM (inactive) | > 100 µM (inactive) | > 100 µM (inactive) | 17.7 µM (inactive) | > 100 µM (inactive) | > 100 µM (inactive) | 32.3 µM (inactive) | > 100 µM (inactive) | > 100 µM (inactive) | > 100 µM (inactive) | > 100 µM (inactive) | 11.3 µM (inactive) | 12.1 µM (inactive) | > 100 | > 100 µM (inactive) | > 100 µM (inactive) | 70.8 µM (inactive) |  |  | 
O=S(=O)(c1ccc(Cl)cc1)c1ccccc1C1=NCCN1 | > 100 µM (inactive) | > 100 µM (inactive) | > 100 µM (inactive) |  | > 100 µM (inactive) | > 100 µM (inactive) | > 100 µM (inactive) | > 100 µM (inactive) | > 100 µM (inactive) | > 100 µM (inactive) | > 100 µM (inactive) |  | > 100 µM (inactive) | > 100 | > 100 µM (inactive) | > 100 µM (inactive) | > 100 µM (inactive) | > 100 µM (inactive) | > 100 µM (inactive) | > 100 µM (inactive)
c1ccc2sc(C3(N4CCC5(CC4)OCCO5)CCCCC3)cc2c1 | > 100 µM (inactive) |  | > 100 µM (inactive) | > 100 µM (inactive) | > 100 µM (inactive) |  | 56.4 µM (inactive) | 48.5 µM (inactive) | > 100 µM (inactive) | > 100 µM (inactive) | > 100 µM (inactive) | > 100 µM (inactive) | 88.3 µM (inactive) | > 100 | > 100 µM (inactive) | > 100 µM (inactive) | 12.2 µM (inactive) | > 100 µM (inactive) |  | 29.4 µM (inactive)
COc1cc2cc3c4c(cc(OC)c(OC)c4c2cc1OC)CCN3C(=O)OCCN1CCNCC1 | 17.1 µM (inactive) | 15.3 µM (inactive) | 14.9 µM (inactive) | 14.6 µM (inactive) | 12.6 µM (inactive) | 19.3 µM (inactive) | 11.9 µM (inactive) | 13.5 µM (inactive) | 17.3 µM (inactive) | 15 µM (inactive) | 14.4 µM (inactive) | 15.1 µM (inactive) | 15.9 µM (inactive) | 15.5 | 17.3 µM (inactive) | 11.1 µM (inactive) | 13.2 µM (inactive) |  |  | 
N#CCN1CCCCCc2ccccc21 | > 100 µM (inactive) | > 100 µM (inactive) | > 100 µM (inactive) |  | > 100 µM (inactive) |  | > 100 µM (inactive) | > 100 µM (inactive) | > 100 µM (inactive) |  | > 100 µM (inactive) | > 100 µM (inactive) | > 100 µM (inactive) | > 100 | > 100 µM (inactive) | > 100 µM (inactive) | > 100 µM (inactive) | > 100 µM (inactive) |  | > 100 µM (inactive)
O=C1CCCCC1C1(O)C(=O)Nc2cc(F)ccc21 (stereo unspecified) | > 100 µM (inactive) | > 100 µM (inactive) | > 100 µM (inactive) | > 100 µM (inactive) | > 100 µM (inactive) | > 100 µM (inactive) | > 100 µM (inactive) | > 100 µM (inactive) | > 100 µM (inactive) | > 100 µM (inactive) | > 100 µM (inactive) | > 100 µM (inactive) | > 100 µM (inactive) | > 100 | > 100 µM (inactive) | > 100 µM (inactive) | > 100 µM (inactive) |  |  | 
COc1c(NC(C)=O)c2ccccc2c2ccccc12 | > 100 µM (inactive) | > 100 µM (inactive) | 89.3 µM (inactive) | > 100 µM (inactive) | 75 µM (inactive) | > 100 µM (inactive) |  | > 100 µM (inactive) | > 100 µM (inactive) |  | > 100 µM (inactive) |  | > 100 µM (inactive) | > 100 | > 100 µM (inactive) | > 100 µM (inactive) | 99.5 µM (inactive) | > 100 µM (inactive) | > 100 µM (inactive) | 
C[C@H]1O[C@@H](O[C@H]2[C@@H](O)C[C@H](O[C@H]3[C@@H](O)C[C@H](O[C@H]4CC[C@@]5(C)[C@H](CC[C@@H]6[C@@H]5CC[C@]5(C)[C@@H](C7=CC(=O)OC7)[C@@H](O)C[C@]65O)C4)O[C@@H]3C)O[C@@H]2C)C[C@H](O)[C@@H]1O [GITOXIN] | 0.566 µM (active) | 0.258 µM (active) | 0.219 µM (active) | 0.237 µM (active) | 0.361 µM (active) | 0.543 µM (active) | 0.703 µM (active) | 0.132 µM (active) | 0.416 µM (active) | 0.107 µM (active) | 0.0991 µM (active) | 0.1 µM (active) | 0.164 µM (active) | 0.593 | 0.206 µM (active) | 0.152 µM (active) | 0.116 µM (active) | 0.197 µM (active) | 0.259 µM (active) | 
CN(C)NC(=S)NC12CC3CC(CC(C3)C1)C2 | > 100 µM (inactive) | > 100 µM (inactive) | > 100 µM (inactive) | > 100 µM (inactive) | > 100 µM (inactive) | > 100 µM (inactive) | > 100 µM (inactive) | > 100 µM (inactive) | > 100 µM (inactive) | > 100 µM (inactive) | > 100 µM (inactive) | > 100 µM (inactive) | > 100 µM (inactive) | > 100 | > 100 µM (inactive) | > 100 µM (inactive) | > 100 µM (inactive) |  |  | 
CCOC1C(Br)Cn2c(=O)c3cc4ccccc4cc3c(=O)n2C1C (stereo unspecified) | > 100 µM (inactive) | > 100 µM (inactive) | 78.5 µM (inactive) | 12.2 µM (inactive) | 37.6 µM (inactive) | > 100 µM (inactive) | 39.4 µM (inactive) | 40.3 µM (inactive) | > 100 µM (inactive) | 55.1 µM (inactive) | > 100 µM (inactive) | > 100 µM (inactive) | > 100 µM (inactive) | 43.6 | > 100 µM (inactive) | > 100 µM (inactive) | 44.9 µM (inactive) |  |  | 
CN1C2CCC1CC(CCOC(c1ccc(F)cc1)c1ccc(F)cc1)C2 (stereo unspecified) | 16 µM (inactive) | 14.9 µM (inactive) | 14.6 µM (inactive) | 17.8 µM (inactive) | 12.4 µM (inactive) | 16.9 µM (inactive) | 14.3 µM (inactive) | 17.5 µM (inactive) | 17.3 µM (inactive) | 16.3 µM (inactive) | 10.4 µM (inactive) | 15.9 µM (inactive) | 18.4 µM (inactive) | 16.9 | 15.1 µM (inactive) | 15.8 µM (inactive) | 16.1 µM (inactive) | 17.5 µM (inactive) | 15.5 µM (inactive) | 
CC(N)Cc1ccc(Cl)c(Cl)c1 (stereo unspecified) | 39.5 µM (inactive) | 42.7 µM (inactive) | 19.8 µM (inactive) | 45 µM (inactive) | 21.7 µM (inactive) | 19.4 µM (inactive) | 23.3 µM (inactive) | 30.1 µM (inactive) | 51.6 µM (inactive) | 23.6 µM (inactive) | 24.9 µM (inactive) | 12.4 µM (inactive) | 30.2 µM (inactive) | 30 | 19.6 µM (inactive) | 71.8 µM (inactive) | 18.6 µM (inactive) |  |  | 
CC(=O)N(N=O)c1ccc(N(N=O)C(C)=O)cc1 | > 100 µM (inactive) | > 100 µM (inactive) | > 100 µM (inactive) | > 100 µM (inactive) | > 100 µM (inactive) | > 100 µM (inactive) | > 100 µM (inactive) | > 100 µM (inactive) | > 100 µM (inactive) | > 100 µM (inactive) | > 100 µM (inactive) | > 100 µM (inactive) | > 100 µM (inactive) | > 100 | > 100 µM (inactive) | > 100 µM (inactive) | > 100 µM (inactive) |  |  | 
O=C1CCc2nc3ncccc3cc2C1 | > 100 µM (inactive) |  | 79.8 µM (inactive) | > 100 µM (inactive) | 29.2 µM (inactive) | > 100 µM (inactive) | > 100 µM (inactive) | 99.5 µM (inactive) | 58.2 µM (inactive) | > 100 µM (inactive) | > 100 µM (inactive) |  | > 100 µM (inactive) | 96.4 | > 100 µM (inactive) | 51.8 µM (inactive) |  | > 100 µM (inactive) | > 100 µM (inactive) | 
C=CN1C(=O)OC[C@@H]1c1ccccc1 | > 100 µM (inactive) | 96.6 µM (inactive) | > 100 µM (inactive) | > 100 µM (inactive) | > 100 µM (inactive) | > 100 µM (inactive) | > 100 µM (inactive) | > 100 µM (inactive) | > 100 µM (inactive) | > 100 µM (inactive) | > 100 µM (inactive) | > 100 µM (inactive) | > 100 µM (inactive) | 16.6 | > 100 µM (inactive) | > 100 µM (inactive) | > 100 µM (inactive) |  |  | 
COC(=O)[C@@H]1CN(C(=O)c2ccccc2)C(=O)N1C(=O)OCc1ccccc1 | > 100 µM (inactive) | > 100 µM (inactive) | > 100 µM (inactive) | > 100 µM (inactive) | > 100 µM (inactive) | > 100 µM (inactive) | > 100 µM (inactive) | > 100 µM (inactive) | > 100 µM (inactive) | > 100 µM (inactive) | > 100 µM (inactive) | > 100 µM (inactive) | > 100 µM (inactive) | > 100 | > 100 µM (inactive) | > 100 µM (inactive) | > 100 µM (inactive) | > 100 µM (inactive) |  | > 100 µM (inactive)
